The text below walks through data of patent US20090124644A1, “HIV INHIBITING 2-(4-CYANOPHENYLAMINO) PYRIMIDINE DERIVATIVES” (priority 2005, published 2009).

pEC50: −log10 of the molar value.

What all share (format): cell-based
Assay [1] has as its system Strain C, mutation L100I in HIV reverse transcriptase. Description: Antiviral spectrum, cellular assay, strain C. As to conditions: Human immunodeficiency virus 1, read-out: pEC50 C (converted). As for the experimental part: (§1) Because of the increasing emergence of drug resistant HIV strains, the present compounds were tested for their potency against clinically isolated HIV strains harboring several mutations. These mutations are associated with resistance to reverse transcriptase inhibitors and result in viruses that show various degrees of phenotypic cross-resistance to the currently commercially available drugs such as for instance AZT and delavirdine.
(§2) The antiviral activity of the compound of the present invention has been evaluated in the presence of wild type HIV and HIV mutants bearing mutations at the reverse transcriptase gene. The activity of the compounds is evaluated using a cellular assay and the residual activity is expressed in pEC50 values. The columns IIIB and A-G in the table list the pEC50 values against various strains IIIB, A-G.
(§3) Strain IIIB is wild type HIV-LAI strain Strain A contains mutation Y181C in HIV reverse transcriptase, Strain B contains mutation V106A in HIV reverse transcriptase, Strain C contains mutation L100I in HIV reverse transcriptase, Strain D contains mutation Y188L in HIV reverse transcriptase, Strain E contains mutations L100I and K103N in HIV reverse transcriptase, Strain F contains mutations K103N and Y181C in HIV reverse transcriptase.

Assay [2] deals with Strain E, mutations L100I and K103N in HIV reverse transcriptase. Kind of assay: Antiviral spectrum, cellular assay, strain E. Particulars: Human immunodeficiency virus 1, read-out: pEC50 E (converted). As for the experimental part: as §1, §2, §3
Assay [3] deals with Strain F, mutations K103N and Y181C in HIV reverse transcriptase. Kind of assay: Antiviral spectrum, cellular assay, strain F. As to conditions: Human immunodeficiency virus 1, read-out: pEC50 F (converted). As for the experimental part:
as §1, §2, §3

In assay [4] the test system is Strain D, mutation Y188L in HIV reverse transcriptase. Description: Antiviral spectrum, cellular assay, strain D. Particulars: Human immunodeficiency virus 1, read-out: pEC50 D (converted). As for the experimental part: as §1, §2, §3
Assay [5] has as its system Strain B, mutation V106A in HIV reverse transcriptase. Description: Antiviral spectrum, cellular assay, strain B. Particulars: Human immunodeficiency virus 1, read-out: pEC50 B (converted). The procedure:
as §1, §2, §3

The subject of assay [6] is Strain IIIB, wild type HIV-LAI strain. Description: Antiviral spectrum, cellular assay, strain IIIB. As to conditions: Human immunodeficiency virus 1. As for the experimental part:
as §1, §2, §3

Assay [7] concerns Strain A, mutation Y181C in HIV reverse transcriptase. Kind of assay: Antiviral spectrum, cellular assay, strain A. As to conditions: Human immunodeficiency virus 1, read-out: pEC50 A (converted). The procedure: as §1, §2, §3

For `Cc1cc(C#N)cc(C)c1Nc1nc(Nc2ccc(C#N)cc2)nc(N)c1Br` [Compound 1], the EC50 is 0.794 nM in assay [1]; 3.98 nM in assay [2]; 3.98 nM in assay [3]; 0.794 nM in assay [4]; 0.398 nM in assay [5]; 3.98 nM in assay [7]. Moreover, the negative logarithm of the EC50 (pEC50) in assay [6] was 9.20.

As to `N#Cc1ccc(Nc2nc(N)c(Br)c(Sc3c(C#N)cc(C#N)cc3C#N)n2)cc1` [Compound 2], the EC50 is 20 nM in assay [1]; 7.94 nM in assay [2]; 20 nM in assay [3]; 3.98 nM in assay [4]; 3.16 nM in assay [5]; 15.8 nM in assay [7]. For the same molecule, the pEC50 in assay [6] is 8.50.

`Cc1cc(C#N)cc(C)c1[S+]([O-])c1nc(Nc2ccc(C#N)cc2)nc(N)c1Br` (stereo not drawn) [Compound 3]: the EC50 in assay [1] is 1580 nM; in assay [2] it was 6310 nM; in assay [3] it was 251 nM; in assay [4], 39.8 nM; in assay [5], 7.94 nM; in assay [7] it was 79.4 nM. Further, in assay [6], the pEC50 was 8.30.

A word on the pEC50: it is −log10 of the EC50, conventionally taken in molar units. A lower pEC50 goes with a large EC50.
